Test results as given in article PMC9959048, “Lipidation of Naturally Occurring α-Helical Antimicrobial Peptides as a Promising Strategy for Drug Design” (International Journal of Molecular Sciences, 2023).
Converted amounts (≈) assume the structure as drawn. Residues, ends and D or L forms follow the SMILES beside them. *: point of attachment. Octanoyl = CCCCCCCC(=O)*

Key:
S. aureus PCM1650 = assay type: cell-based, Staphylococcus aureus; details: PCM1650, 24 h
Procedure, shortened: (§1)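 Strains were precultured in LB (bacteria) or Sabouraud broth (fungi), then exposed to serially diluted lipopeptides in Mueller–Hinton broth at 37 °C or MOPS-buffered RPMI-1640 with 2% glucose at 35 °C for 24 h. Absorbance at 600 nm gave percent inhibition relative to controls.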

S. aureus PCM2054 = assay type: cell-based, Staphylococcus aureus; details: PCM2054, 24 h
Procedure, shortened: as §1

S. epidermidis PCM2118 = assay type: cell-based, Staphylococcus epidermidis; details: PCM2118, 24 h
Procedure, shortened: as §1

S. epidermidis PCM521 = assay type: cell-based, Staphylococcus epidermidis; details: PCM521, 24 h
Procedure, shortened: as §1

E. coli PCM2057 = assay type: cell-based, Escherichia coli; details: PCM2057, 24 h
Procedure, shortened: as §1

C. albicans PCM2566 = assay type: cell-based, Candida albicans; details: PCM2566, 24 h
Procedure, shortened: as §1

C. glabrata CCM8270 = assay type: cell-based, Candida glabrata; details: CCM8270, 24 h
Procedure, shortened: as §1

C. parapsilosis CCM 8260 = assay type: cell-based, Candida parapsilosis; details: CCM 8260, 24 h
Procedure, shortened: as §1

[1] = Dynamic light scattering of lipopeptide assemblies; assay type: physicochemical; details: DLS, sonicated 10 min, incubated 1 h, 90° side scatter
Procedure: The hydrodynamic diameters of the lipopeptide nanoaggregates were examined by the Litesizer 500 (Anton-Paar GmbH, Graz, Austria) at 25 °C. The measurements were carried out at various lipopeptide concentrations ranging from 0.5 to 2 mM and from 0.25 to 2 mM, in water and PBS, respectively. Two-fold serial dilutions were used to obtain the sequential concentrations. Each sample was sonicated for 10 min followed by incubation for 1 h at 25 °C and transferred to the polystyrene cuvette. The detector was positioned at a side scatter position (90°). The analysis of the obtained results and report generation was performed with KalliopeTM software (Anton-Paar GmbH, Graz, Austria).

S. aureus cells = test: CD, α-helix content in the presence of S. aureus cells; assay type: physicochemical, Staphylococcus aureus; details: for α-Helix percentage, Staphylococcus aureus: peptide 0.15 mg/mL, phosphate buffer 10 mM pH 7.0, 2 h incubation
Procedure: CD experiments were carried out at 25 °C using a Jasco J-815 spectropolarimeter in the wavelength range 185–260 nm. The concentration of the lipopeptides was 0.15 mg/mL. The CD spectra were recorded in water, PBS (pH 7.4), 1.3 mM POPC and 1.3 mM POPG. The results are plotted as the mean molar ellipticity per one amino acid residue (MRME, deg cm^2 dmol^−1) as a function of the wavelength (nm). Additionally, we performed a conformational analysis of the selected compounds in the presence of S. aureus cells. […] The mixtures were then incubated for 2 h before recording the CD spectra.
The percentage of the α-helical structure was calculated based on the mean molar ellipticity at 222 nm using the formula: fH=θ222−3000/−36000−3000·100% where θ222 corresponds to the value of the mean molar ellipticity at a wavelength of 222 nm.

POPG LUVs = test: Isothermal titration calorimetry, binding to POPG LUVs; details: ITC, 25 °C, 0.05 or 0.07 mM peptide titrated with 1.3 or 1.8 mM POPG LUVs; one set of sites model (C10-LL-I: two sets of sites, first line)
Procedure: Large unilamellar vesicles (LUV) were obtained by extrusion of MLV liposomes through polycarbonate membrane filters with a pore diameter of 100 nm (Whatman International Ltd., Kent, UK) using a mini-extruder (Avanti Polar Lipids, Inc., Alabaster, AL, USA).
The thermodynamic parameters of the interactions of the lipopeptides with POPG and POPC liposomes were determined by isothermal titration calorimetry (ITC). Measurements were performed at 25 °C using an AutoITC microcalorimeter (MicroCal Inc., Northampton, MA, USA) with a 1.4491 mL sample and reference cells. The experiment consisted in the titration of a buffered peptide solution with a concentration of 0.05 and/or 0.07 mM with a buffered solution containing POPG or POPC LUVs with a lipid concentration of 1.3 and 1.8 mM (10.02 µL; 29 injections, 2 µL for the first injection only), as it was described previously. The result of the titration was a thermogram showing a series of peaks corresponding to the titration steps. A titration curve was obtained after integration of the peak areas. The obtained isotherms were fitted to the “one set of sites” or “two sets of sites” models available in the ORIGIN 7.0 (MicroCal Inc., Northampton, MA, USA), which made it possible to determine the enthalpy (ΔH), the binding constant (KITC) and the stoichiometry (N) of the interactions between the lipopeptide and the lipids. The following formula was used to calculate the entropy change (ΔS) and the Gibbs free energy (ΔG): ΔG=−RTln(55.5KITC)=ΔH−TΔS where: factor 55.5 is the molar concentration of water, R is the gas constant (1.986 cal·mol^−1·K^−1), and T is the absolute temperature.

CCCCCCCC(=O)N[C@H](C(=O)N[C@@H](CCCCN)C(=O)N[C@@H](CCCCN)C(=O)N[C@H](C(=O)N[C@@H](CC(C)C)C(=O)N[C@@H](CO)C(=O)N[C@@H](CCCCN)C(=O)N[C@H](C(=O)N[C@@H](CCCCN)C(=O)N[C@@H](CCCCN)C(=O)N[C@@H](CC(C)C)C(=O)N[C@@H](CC(C)C)C(=O)N[C@@H](CCCCN)C(N)=O)[C@@H](C)CC)[C@@H](C)CC)[C@@H](C)CC [C8-LK6] (Octanoyl-IKKILSKIKKLLK-NH2)
MIC, S. aureus PCM1650 (S. aureus PCM1650): 12.5 µg/mL (≈ 7.45 µM)
MIC, S. aureus PCM2054 (S. aureus PCM2054): 12.5 µg/mL (≈ 7.45 µM)
MIC, S. epidermidis PCM2118 (S. epidermidis PCM2118): 6.25 µg/mL (≈ 3.72 µM)
MIC, S. epidermidis PCM521 (S. epidermidis PCM521): 6.25 µg/mL (≈ 3.72 µM)
MIC, E. coli PCM2057 (E. coli PCM2057): >50 µg/mL
MIC, C. albicans PCM2566 (C. albicans PCM2566): 12.5 µg/mL (≈ 7.45 µM)
MIC, C. glabrata CCM8270 (C. glabrata CCM8270): 25 µg/mL (≈ 14.9 µM)
MIC, C. parapsilosis CCM 8260 (C. parapsilosis CCM 8260): 6.25 µg/mL (≈ 3.72 µM)
hydrodynamic diameter, peak of highest scattering intensity ([1]; 0.25 mM in PBS pH 7.4, 25 °C): 2596 ± 512 nm
hydrodynamic diameter, peak of highest scattering intensity ([1]; 0.5 mM salt-free aqueous solution, 25 °C): 327 ± 102 nm
hydrodynamic diameter ([1]; 2 mM in PBS pH 7.4, 25 °C): 3047 ± 750 nm
θ222/θ208, Staphylococcus aureus (S. aureus cells; OD0.1 bacterial suspension): 1.26
α-Helix percentage, Staphylococcus aureus (S. aureus cells; OD0.1 bacterial suspension): 22%
θ222/θ208, Staphylococcus aureus (S. aureus cells; OD0.2 bacterial suspension): 0.89
α-Helix percentage, Staphylococcus aureus (S. aureus cells; OD0.2 bacterial suspension): 17%
θ222/θ208, Staphylococcus aureus (S. aureus cells; OD0.5 bacterial suspension): 0.88
α-Helix percentage, Staphylococcus aureus (S. aureus cells; OD0.5 bacterial suspension): 18%
α-helical structure in the presence of bacterial cells (S. aureus cells; S. aureus, various bacterial cell counts of the inoculum): 17–22%
pKITC, POPG (POPG LUVs): 6.31 ± 0.34
